Assay results published in publication PMC12392461, “Beyond Estrogenicity: A Comparative Assessment of Bisphenol A and Its Alternatives in In Vitro Assays Questions Safety of Replacements” (Environmental Science & Technology, 2025).
Read-outs that look alike come from different tables or passages of the source.

Columns and labels:
[1] = system: Mitochondrial Membrane Potential; assay: cells; conditions: for EC10, linear / logEC10: MMP bioassay, dosing range all; for EC10, linear: linear model; for logEC10: log-logistic model
MCF7 (ARE/MMP) = conditions: for IC10, linear transformed / IC10, linear / logIC10: dosing range all; for IC10, MCF7, ARE: MCF7, ARE readout; for IC10, MCF7, MMP: MCF7, MMP readout; for Toxic ratio (TR) TRARE / Toxic ratio (TR) TRMMP: against baseline cytotoxicity; for Toxic ratio (TR) TRARE: ARE readout; for Toxic ratio (TR) TRMMP: MMP readout
Summary of the method: (§1)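 Cytotoxicity of BPA and its alternatives was measured as cell confluency on an IncuCyte S3 before and after 24 h exposure at 37 °C, 5% CO₂, normalized to cell-free control wells. Chemicals were dosed as 11-step serial dilutions in duplicate. Only concentrations below IC10 counted toward EC10 or ARE ECIR1.5.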

H4IIe (AhR CALUX) = conditions: for IC10, linear transformed / IC10, linear / logIC10: Bioassay AhR, dosing range all; for IC10, linear transformed / IC10, linear / logIC10 / IC10, H4IIe, AhR: cytotoxicity; for IC10, linear: linear model fit; for logIC10: log-logistic model fit; for IC10, H4IIe, AhR: H4IIe (AhR assay cells); for Toxic ratio (TR) TRAhR: against baseline cytotoxicity
Summary of the method: as §1

HEK293T (ERα) = conditions: for IC10, linear transformed / IC10, linear / logIC10: Bioassay ERα; for IC10, linear transformed / IC10, linear / logIC10 / IC10, HEK293, ERα: cytotoxicity; for IC10, linear: linear model fit; for logIC10: log-logistic model fit; for IC10, HEK293, ERα: HEK293 (ERα assay cells); for Toxic ratio (TR) TRERα: against baseline cytotoxicity
Summary of the method: as §1

HEK293H (PPARγ) = conditions: for IC10, linear transformed / IC10, linear / logIC10: PPARγ bioassay cytotoxicity; for IC10, linear: linear model; for logIC10: log-logistic model; for IC10, HEK293, PPARγ: cytotoxicity, HEK293 (PPARγ assay cells); for Toxic ratio (TR) TRPPARγ: against baseline cytotoxicity
Summary of the method: as §1

[2] = Arec32, read-out: EC10, MMP (M)
[3] = Arec32, read-out: EC10, linear transformed
[4] = Bioassay ARE, cytotoxicity, linear model fit
[5] = Bioassay ARE, cytotoxicity, log-logistic model fit
[6] = MMP bioassay cytotoxicity, linear model
[7] = MMP bioassay cytotoxicity, log-logistic model

| SMILES | EC10 ([1]; Arec32, read-out: EC10, linear) | EC10 [1, 3] | IC10, linear transformed (MCF7 (ARE/MMP); Bioassay ARE, cytotoxicity) | IC10, linear (MCF7 (ARE/MMP); [4]) | logIC10 (MCF7 (ARE/MMP); [5]) | IC10, linear transformed (MCF7 (ARE/MMP); MMP bioassay cytotoxicity) | IC10, linear (MCF7 (ARE/MMP); [6]) | logIC10 (MCF7 (ARE/MMP); [7]) | IC10, MCF7, ARE (MCF7 (ARE/MMP); cytotoxicity) | IC10, MCF7, MMP (MCF7 (ARE/MMP); cytotoxicity) | IC10, linear transformed (H4IIe (AhR CALUX)) | IC10, linear (H4IIe (AhR CALUX)) | logIC10 (H4IIe (AhR CALUX)) | IC10, H4IIe, AhR (H4IIe (AhR CALUX)) | IC10, linear (HEK293T (ERα); dosing range all) | logIC10 (HEK293T (ERα); dosing range all) | IC10, HEK293, ERα (HEK293T (ERα)) | IC10, HEK293, PPARγ (HEK293H (PPARγ)) | IC10, linear (HEK293H (PPARγ); dosing range all) | logIC10 (HEK293H (PPARγ); dosing range all) | other results |
| --- | --- | --- | --- | --- | --- | --- | --- | --- | --- | --- | --- | --- | --- | --- | --- | --- | --- | --- | --- | --- | --- |
| CC(C)(c1cc(Cl)c(O)c(Cl)c1)c1cc(Cl)c(O)c(Cl)c1 [TCBPA, 2,2',6,6'-Tetrachlorobisphenol A] | 1.15e-05 M | 1.6e-05 M | 7.84E-05 | 8.16E-05 | -4.11 | 9.30E-05 | 7.25E-05 | -4.03 | 78.4 µM | 93 µM | 9.01E-05 | no cytotoxicity | -4.05 | 90.1 µM | 1.51E-05 | -4.77 | 15.1 µM | 18.4 µM | – | – | EC10 ([1]; Arec32, read-out: EC10, MMP): 1.48e-05 M; EC10 [1, 2]: 1.48e-05 M; EC10 ([1]; Arec32, read-out: logEC10): 1.48e-05 M; IC10, linear transformed (HEK293T (ERα); dosing range all): 6.86E-06; IC10, linear transformed (HEK293H (PPARγ); dosing range high): 5.23E-06; IC10, linear (HEK293H (PPARγ); dosing range high): 1.84E-05; logIC10 (HEK293H (PPARγ); dosing range high): -4.74; IC10, linear transformed (HEK293H (PPARγ); dosing range low): 7.55E-07; IC10, linear (HEK293H (PPARγ); dosing range low): no cytotoxicity; logIC10 (HEK293H (PPARγ); dosing range low): no cytotoxicity |
| Oc1ccc(C(c2ccc(O)cc2)(C(F)(F)F)C(F)(F)F)cc1 [BPAF, 4,4'-(1,1,1,3,3,3-Hexafluoropropane-2,2-diyl)diphenol] | 3.05e-06 M | 5.27e-06 M | 1.84E-05 | 1.82E-05 | -4.73 | 2.72E-05 | 2.87E-05 | -4.57 | 18.4 µM | 27.2 µM | 3.99E-05 | 3.11E-05 | -4.40 | 31.1 µM | – | – | 9.47 µM | 9.12 µM | 1.10E-05 | -5.04 | EC10 ([1]; Arec32, read-out: EC10, MMP): 5.32e-06 M; EC10 [1, 2]: 5.32e-06 M; EC10 ([1]; Arec32, read-out: logEC10): 5.37e-06 M; IC10, linear transformed (HEK293T (ERα); dosing range high): 5.56E-06; IC10, linear (HEK293T (ERα); dosing range high): no cytotoxicity; logIC10 (HEK293T (ERα); dosing range high): -5.02; IC10, linear (HEK293T (ERα); dosing range low): no cytotoxicity; logIC10 (HEK293T (ERα); dosing range low): no cytotoxicity; IC10, linear transformed (HEK293H (PPARγ); dosing range all): 4.34E-06 |
| CC(C)(c1ccc(OCC2CO2)cc1)c1ccc(OCC2CO2)cc1 (stereo not shown) [BADGE, Bisphenol A diglycidyl ether] | – | 9.1e-05 M | 3.85E-05 | 3.62E-05 | -4.41 | 7.87E-05 | 8.59E-05 | -4.10 | 38.5 µM | 78.7 µM | – | no cytotoxicity | no cytotoxicity | – | no cytotoxicity | -4.73 | 18.8 µM | 24 µM | no cytotoxicity | -4.62 | EC10, linear [1]: no effect; logEC10 [1]: no effect; Toxic ratio (TR) TRARE (MCF7 (ARE/MMP)): 0.61; Toxic ratio (TR) TRMMP (MCF7 (ARE/MMP)): 0.30; IC10, linear transformed (HEK293T (ERα); dosing range all): 1.08E-05; Toxic ratio (TR) TRERα (HEK293T (ERα)): 0.54; IC10, linear transformed (HEK293H (PPARγ); dosing range all): 1.49E-05; Toxic ratio (TR) TRPPARγ (HEK293H (PPARγ)): 0.42 |
| CC(c1ccccc1)(c1ccc(O)cc1)c1ccc(O)cc1 [BPAP, 4,4'-(1-Phenylethylidene)bisphenol] | – | 2.84e-05 M | 3.14E-05 | 2.44E-05 | -4.50 | 3.48E-05 | 2.54E-05 | -4.46 | 31.4 µM | 34.8 µM | 9.59E-05 | no cytotoxicity | -4.02 | 95.9 µM | no cytotoxicity | -4.93 | 11.8 µM | 10.2 µM | no cytotoxicity | -4.99 | EC10, linear [1]: no effect; logEC10 [1]: no effect; IC10, linear transformed (HEK293T (ERα); dosing range all): 1.11E-05; IC10, linear transformed (HEK293H (PPARγ); dosing range all): 3.60E-06 |
| C=CCOc1ccc(S(=O)(=O)c2ccc(O)cc2)cc1 [BPS-MAE, 4-[[4-(Allyloxy)phenyl]sulfonyl]phenol] | 5.59e-05 M | 8.31e-05 M | 3.86E-04 | 4.93E-04 | -3.41 | 8.44E-04 | 1.02E-03 | -3.07 | 386 µM | 844 µM | 8.61E-05 | 8.24E-05 | -4.07 | 82.4 µM | 2.44E-04 | -3.85 | 244 µM | 57.5 µM | 9.34E-05 | -4.24 | EC10 ([1]; Arec32, read-out: EC10, MMP): 7.85e-05 M; EC10 [1, 2]: 7.85e-05 M; EC10 ([1]; Arec32, read-out: logEC10): 7.76e-05 M; IC10, linear transformed (HEK293T (ERα); dosing range all): 6.22E-05; IC10, linear transformed (HEK293H (PPARγ); dosing range all): 1.96E-05 |
| O=S(=O)(c1ccc(O)cc1)c1ccc(OCc2ccccc2)cc1 [BPS-MPE, 4-[4-(benzyloxy)benzenesulfonyl]phenol] | 3.72e-06 M | 5.91e-06 M | 7.91E-05 | 1.19E-04 | -4.10 | 1.23E-04 | 1.88E-04 | -3.91 | 79.1 µM | 123 µM | 5.80E-05 | 5.18E-05 | -4.24 | 51.8 µM | 1.12E-04 | -4.00 | 112 µM | 134 µM | – | – | EC10 ([1]; Arec32, read-out: EC10, MMP): 5.59e-06 M; EC10 [1, 2]: 5.59e-06 M; EC10 ([1]; Arec32, read-out: logEC10): 5.62e-06 M; Specificity ratio (SRbaseline) SRMMP ([1]; against baseline cytotoxicity): 6.33; Specificity ratio (SRcytotoxicity) SRMMP ([1]; against experimental cytotoxicity): 21.99; Relative effect potency REPMMP ([1]; relative to BPA): 5.01; SR (MMP inhibition) ([1]; specificity ratio): 22; Toxic ratio (TR) TRARE (MCF7 (ARE/MMP)): 0.45; Toxic ratio (TR) TRMMP (MCF7 (ARE/MMP)): 0.29; Toxic ratio (TR) TRAhR (H4IIe (AhR CALUX)): 0.68; IC10, linear transformed (HEK293T (ERα); dosing range all): 3.17E-05; Toxic ratio (TR) TRERα (HEK293T (ERα)): 0.10; IC10, linear transformed (HEK293H (PPARγ); dosing range high): 9.04E-06; IC10, linear (HEK293H (PPARγ); dosing range high): 1.34E-04; logIC10 (HEK293H (PPARγ); dosing range high): -3.96; IC10, linear transformed (HEK293H (PPARγ); dosing range low): 1.83E-05; IC10, linear (HEK293H (PPARγ); dosing range low): 1.11E-05; logIC10 (HEK293H (PPARγ); dosing range low): -5.06; Toxic ratio (TR) TRPPARγ (HEK293H (PPARγ)): 0.09 |
| COC(=O)C(c1ccc(O)cc1)c1ccc(O)cc1 [Bz, Methyl bis(4-hydroxyphenyl)acetate] | 3.72e-05 M | 5.74e-05 M | 4.96E-04 | 3.89E-04 | -3.30 | 3.45E-04 | 3.44E-04 | -3.46 | 496 µM | – | 1.41E-04 | 1.09E-04 | -3.85 | 109 µM | – | – | 1010 µM | 282 µM | 3.71E-04 | -3.55 | EC10 ([1]; Arec32, read-out: logEC10): 6.46e-05 M; log(1/EC10) MMP ([1]; input of the ToxPi score, values up to 1.00): 0.84; Toxic ratio (TR) TRARE (MCF7 (ARE/MMP)): 0.70; Toxic ratio (TR) TRAhR (H4IIe (AhR CALUX)): 3.18; IC10, linear transformed (HEK293T (ERα); dosing range high): 1.18E-04; IC10, linear (HEK293T (ERα); dosing range high): 1.01E-03; logIC10 (HEK293T (ERα); dosing range high): -3.63; IC10, linear (HEK293T (ERα); dosing range low): no cytotoxicity; logIC10 (HEK293T (ERα); dosing range low): no cytotoxicity; Toxic ratio (TR) TRERα (HEK293T (ERα)): 0.26; IC10, linear transformed (HEK293H (PPARγ); dosing range all): 1.09E-04; Toxic ratio (TR) TRPPARγ (HEK293H (PPARγ)): 0.92 |
| Cc1ccc(S(=O)(=O)NC(=O)Nc2ccc(Cc3ccc(NC(=O)NS(=O)(=O)c4ccc(C)cc4)cc3)cc2)cc1 [BTUM, 4,4'-Bis(p-tolylsulfonylureido)diphenylmethane] | – | – | – | no cytotoxicity | no cytotoxicity | – | no cytotoxicity | no cytotoxicity | – | – | – | no cytotoxicity | no cytotoxicity | – | 3.66E-05 | no cytotoxicity | – | 31 µM | 4.34E-05 | -4.51 | EC10, linear [1]: no effect; logEC10 [1]: no effect; Toxic ratio (TR) TRPPARγ (HEK293H (PPARγ)): 0.91 |
